One block for each substance: values may come before it. Where no end group is shown, it is not given here. [ ]: non-standard residue; d: D form. 1Nal = N[C@@H](Cc1cccc2ccccc12)C(=O)O; Aib = CC(C)(N)C(=O)O
Assays:
[1] = tested on: diet-induced obese (DIO) mice; test: Effects on food intake, body weight and body composition in DIO mice; type: in vivo; conditions: for Fat mass loss (g fat weight change for 14 days) / Overall weight loss (g weight change for 14 days) / Total food intake (g total for 14 days): DIO mice
Experimental: Effects on Food Intake, Body Weight and Body Composition in Diet-Induced Obese (DIO) Mice
Three to four months old male diet-induced obese (DIO) mice are used. Animals are individually housed in a temperature-controlled (24° C.) facility with a 12 hour light/dark cycle (lights on 22:00), and have free access to food and water. After 2 weeks acclimation to the facility, mice are randomized to treatment groups (n=8-10/group) so that each group has similar mean body weight and fat mass. Before the experiment, mice are subcutaneously (sc) injected with vehicle solution and weighed for 7 days to acclimate them to the procedures.
Vehicle or peptide analog (dose range 10-100 nmol/Kg) dissolved in vehicle is administered by sc injection to ad libitum fed DIO mice 30-90 minutes prior to the onset of the dark cycle […] for 2 to 4 weeks. Body weight and the weight of food plus the hopper are measured at the same time. Food consumed in the last 24 hours is calculated by subtracting current weight of food plus the hopper from that of the previous day. Absolute changes in body weight are calculated by subtracting the body weight of the animal prior to the first injection. On days −1 and 14, total fat mass is measured by nuclear magnetic resonance (NMR) using an Echo Medical System (Houston, Tex.) instrument. Fat free mass is calculated by subtracting fat mass from total body weight.

[2] = tested on: Normal male Wistar rats; test: Intravenous glucose tolerance test in normal rats; type: in vivo; conditions: IVGTT; for insulin AUC: 0 to 30 min
Experimental: Effects on Blood Glucose Excursion During an Intravenous Glucose Tolerance Test in Normal Rats
Normal male Wistar rats (225-250 g) are used in the study. Animals are randomized into groups based on fed body weight and blood glucose. Animals are injected with vehicle or peptide analog (dose 3-400 μg peptide content/kg) 16 hours prior to the start of the test. Food is removed at the time of injection. Prior to the assay the animals are put under anesthesia, Phenobarbital 65 mg/kg i.p., and two catheters are inserted, one in the jugular vein and the other in the carotid artery. At time 0, animals are given 0.5 g glucose/kg through the venous catheter. Blood is collected from the carotid artery at time 0 (pre glucose), 2, 4, 6, 10, 20 and 30 minutes after glucose challenge. Glucose concentration is measured by glucometer. Insulin is measured by Mesoscale®. Efficacy is measured as the increase in total area under the insulin curve (=integrated plasma insulin values from t+0 to 30 min) as well as the area under the glucose curve which is a measure of the glucose excursion following the intravenous glucose challenge.

[3] = tested on: DIO mice; test: Oral glucose tolerance test after 2-week treatment in DIO mice; type: in vivo; conditions: for Glucose AUC, MEAN: OGTT
Experimental: Fifty-six hours after the last injection of compound in the DIO study above the animals were subjected to an oral glucose tolerance test. In short, mice were fasted for 16 hours prior to the start of the glucose tolerance test. At time 0, animals are given 2 g/kg dextrose by oral gavage. Blood is collected by tail bleeding taken 0, 15, 30, 60 and 120 minutes after glucose challenge. Glucose concentration is measured by glucometer.

[4] = target: T1, hGlucR (Homo sapiens, UniProt P47871); test: Glucagon receptor (hGlucR) binding assay (SPA, I-125 glucagon); conditions: hGlucR 293HEK membranes
T1 construct: expressed in transfected cells; host or cells: 293HEK, Hygromycin-selected, phD expression plasmid
Experimental: The hGlucR cDNA is subcloned into the expression plasmid phD (Trans-activated expression of fully gamma-carboxylated recombinant human protein C, an antithrombotic factor. Grinnell, B. W., et. al., Bio/Technology 5: 1189-1192 (1987)). This plasmid DNA is transfected into 293HEK cells and selected with 200 μg/mL Hygromycin.
Crude plasma membranes are prepared using cells from suspension culture. The cells are lysed on ice in hypotonic buffer containing 25 mM Tris HCl, pH 7.5, 1 mM MgCl2, DNAse1, 20 μ/mL, and Roche Complete™ Inhibitors without EDTA. The cell suspension is homogenized with a glass dounce homogenizer using a Teflon® pestle for 25 strokes. The homogenate is centrifuged at 4° C. at 1800×g for 15 minutes. The supernatant is collected and the pellet is resuspended in hypotonic buffer and rehomogenized. The mixture is centrifuged at 1800×g for 15 minutes. The second supernatant is combined with the first supernatant. […]
The binding buffer contains 25 mM 4-(2-hydroxyethyl)-1-piperazineethanesulfonic acid (HEPES), pH 7.4, 2.5 mM CaCl2, 1 mM MgCl2, 0.1% fatty acid free BSA, 0.003% Tween20, and Roche Complete™ Inhibitors without EDTA. […] Plates are read with a PerkinElmer Life and Analytical Sciences Trilux MicroBeta® scintillation counter after 12 hours of settling time at room temperature.
Results are calculated as a percent of specific I-125-glucagon binding in the presence of compound. […]

[5] = tested on: diet-induced obese Long Evans rats; test: Effects on food intake, body weight, body composition and plasma lipids in DIO Long Evans rats; type: in vivo
Experimental: Four to five months old male diet-induced obese Long Evans rats are used. Animals are individually housed in a temperature-controlled (24° C.) facility with a 12 hour light/dark cycle (lights on 22:00), and have free access to food (diet TD95217) and water. Animals are acclimated to the facility for at least 2 weeks. On day 0, body composition is determined by QNMR and rats are randomized to respective groups (n=6/group) based on body weight, % fat, and % lean mass. Compound is administered by subcutaneous injection on days 1, 4, 8, 11, and 15. […] After CO2 euthanasia, blood samples are taken by cardiac stick for analysis of exposure determination.

T1 sequence (P47871 26-477): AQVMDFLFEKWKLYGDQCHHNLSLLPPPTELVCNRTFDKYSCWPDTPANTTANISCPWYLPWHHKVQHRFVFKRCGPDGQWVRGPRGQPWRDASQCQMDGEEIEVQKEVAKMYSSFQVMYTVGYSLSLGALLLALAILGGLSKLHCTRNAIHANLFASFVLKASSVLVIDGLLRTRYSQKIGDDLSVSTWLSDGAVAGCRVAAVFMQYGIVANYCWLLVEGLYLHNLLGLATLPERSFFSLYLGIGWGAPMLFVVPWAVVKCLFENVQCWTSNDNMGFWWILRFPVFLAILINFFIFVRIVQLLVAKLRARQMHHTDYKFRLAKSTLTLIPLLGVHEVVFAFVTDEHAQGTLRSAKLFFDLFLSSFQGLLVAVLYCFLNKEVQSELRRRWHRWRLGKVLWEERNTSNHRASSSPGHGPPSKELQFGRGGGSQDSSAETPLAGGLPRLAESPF

Substance: Aib^2, Aib^13, Nal^22, Aib^29, Cys^43(PEG20K), Cys^44 (PEG20K)-GIP [Example 5] (Y[Aib]EGTFTSDYSI[Aib]LDKIAQRA[1Nal]VQWLIA[Aib]KGKKQEWKHQITQCC-NH2; not fully specified (residues 43, 44); cysteine pairing not given here) [Nal22 GIP analog PEGylated at Cys 43 and 44 with 20 kDa mPEG iodoacetamide]
Fat mass loss (g fat weight change for 14 days) ([1]; Table 6b, 10 nmol/Kg): -2.4 ± 0.3 g
Overall weight loss (g weight change for 14 days) ([1]; Table 6b, 10 nmol/Kg): -3.2 ± 0.3 g
Total food intake (g total for 14 days) ([1]; Table 6b, 10 nmol/Kg): 31.0 ± 1.0 g
Fat mass loss (g fat weight change for 14 days) ([1]; Table 6b, 30 nmol/Kg): -3.6 ± 0.4 g
Overall weight loss (g weight change for 14 days) ([1]; Table 6b, 30 nmol/Kg): -5.0 ± 0.4 g
Total food intake (g total for 14 days) ([1]; Table 6b, 30 nmol/Kg): 26.7 ± 0.7 g
glucose AUC ([2]; 50 μg/Kg): 7202 mg·min/dL
insulin AUC ([2]; 50 μg/Kg 16 hours before test): 133 ng·min/mL
glucose AUC ([2]; 200 μg/Kg): 7351 mg·min/dL
insulin AUC ([2]; 200 μg/Kg 16 hours before test): 124 ng·min/mL
Glucose AUC, MEAN ([3]; Table 7b, 10 nmol/Kg): 14332 mg·min/dL
Glucose AUC, MEAN ([3]; Table 7b, 30 nmol/Kg): 12474 mg·min/dL

Ki [4]: > 7.89 µM
Substance: Aib^2, Aib^13, Aib^29, Cys^43(PEG20K), Cys^44 (PEG20K)-GIP (Y[Aib]EGTFTSDYSI[Aib]LDKIAQRAFVQWLIA[Aib]KGKKQEWKHQITQC(PEG 20 kDa)C(PEG 20 kDa)-NH2) [Example 3, GIP analog PEGylated at Cys 43 and 44 with 20 kDa mPEG maleimide]
cumulative food intake and body weight compared to vehicle-treated mice ([1]; 14-day DIO mouse studies, summary of Tables 6a and 6b): decreased
Fat mass loss (g fat weight change for 14 days) ([1]; Table 6a, 30 nmol/Kg): -4.3 ± 0.3 g
Total food intake (g total for 14 days) ([1]; Table 6a, 30 nmol/Kg): 26.5 ± 1.5 g
Overall weight loss (g weight change for 14 days) ([1]; Table 6a, 30 nmol/Kg sc every 3 days): -5.5 ± 0.4 g
Fat mass loss (g fat weight change for 14 days) ([1]; Table 6a, 100 nmol/Kg): -5.6 ± 0.2 g
Total food intake (g total for 14 days) ([1]; Table 6a, 100 nmol/Kg): 23.4 ± 0.7 g
Overall weight loss (g weight change for 14 days) ([1]; Table 6a, 100 nmol/Kg sc every 3 days): -7.0 ± 0.3 g
insulin AUC and glucose AUC compared to vehicle-treated rats [2]: increased insulin AUC and decreased glucose AUC
glucose AUC ([2]; 50 μg/Kg): 6780 mg·min/dL
insulin AUC ([2]; 50 μg/Kg 16 hours before test): 137 ng·min/mL
glucose AUC ([2]; 200 μg/Kg): 7020 mg·min/dL
insulin AUC ([2]; 200 μg/Kg 16 hours before test): 183 ng·min/mL
glucose excursion following an oral glucose load ([3]; DIO mice, summary of Tables 7a and 7b): significantly reduced
Glucose AUC, MEAN ([3]; Table 7a, 30 nmol/Kg): 10293 mg·min/dL
Glucose AUC, MEAN ([3]; Table 7a, 100 nmol/Kg): 10892 mg·min/dL
free fatty acids (plasma) ([5]; 10 nmol/Kg): 0.94 mEq/L
total cholesterol (plasma) ([5]; 10 nmol/Kg): 91 mg/dL
triglycerides (plasma) ([5]; 10 nmol/Kg): 262.1 mg/dL
fat mass reduced ([5]; 10 nmol/Kg over 16 days): 1.3%
lean mass increased ([5]; 10 nmol/Kg over 16 days): 0.6%
free fatty acids (plasma) ([5]; 30 nmol/Kg): 1.01 mEq/L
total cholesterol (plasma) ([5]; 30 nmol/Kg): 94 mg/dL
triglycerides (plasma) ([5]; 30 nmol/Kg): 233.5 mg/dL
fat mass reduced ([5]; 30 nmol/Kg over 16 days): 2.3%
lean mass increased ([5]; 30 nmol/Kg over 16 days): 1.3%
changes in body weight and body composition compared to vehicle-treated DIO rats ([5]; over 16 days): increasing the percentage of lean mass and decreasing the percentage of fat mass
amount of free fatty acids ([5]; versus vehicle): increased
amounts of plasma lipids, including triglycerides and total cholesterol ([5]; versus vehicle): lowered
